Experimental data reported in PubChem BioAssay (NCI).
Where “and” joins values, the source holds several entries; their conditions need not be identical. Identical values can stand only once.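 Abbreviation: GI50, concentration required for 50% inhibition of growth. TGI denotes the concentration required for complete inhibition of growth.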

Assays:
Assay in all cases: NCI tumour cell line growth inhibition, 384-well format
[1] = tested on: MOLT-4 leukemia
[2] = tested on: SN12C renal
[3] = tested on: TK-10 renal
[4] = tested on: ACHN renal
[5] = tested on: HCT-15 colon
[6] = tested on: T-47D breast
[7] = tested on: OVCAR-5 ovarian
[8] = tested on: SK-MEL-28 melanoma
[9] = tested on: SF-268 CNS
[10] = tested on: SK-OV-3 ovarian
[11] = tested on: BT-549 breast
[12] = tested on: COLO 205 colon
[13] = tested on: NCI-H23 lung
[14] = tested on: NCI-H226 lung
[15] = tested on: HOP-92 NSCLC
[16] = tested on: PC-3 prostate
[17] = tested on: LOX IMVI melanoma
[18] = tested on: HCC-2998 colon
[19] = tested on: CCRF-CEM leukemia
[20] = tested on: OVCAR-3 ovarian
[21] = tested on: A549 NSCLC
[22] = tested on: NCI/ADR-RES ovarian
[23] = tested on: SK-MEL-2 melanoma
[24] = tested on: NCI-H322M lung
[25] = tested on: UACC-62 melanoma
[26] = tested on: MDA-MB-231 breast
[27] = tested on: IGROV1 ovarian
[28] = tested on: NCI-H460 NSCLC
[29] = tested on: SF-539 CNS
[30] = tested on: MALME-3M melanoma
[31] = tested on: KM12 colon
[32] = tested on: A498 renal
[33] = tested on: OVCAR-8 ovarian
[34] = tested on: HT29 colon
[35] = tested on: OVCAR-4 ovarian
[36] = tested on: M14 melanoma
[37] = tested on: HL-60(TB) leukemia
[38] = tested on: RPMI-8226 leukemia
[39] = tested on: SNB-19 CNS
[40] = tested on: UO-31 renal
[41] = tested on: MDA-MB-468 breast
[42] = tested on: SF-295 CNS
[43] = tested on: EKVX NSCLC
[44] = tested on: K-562 leukemia
[45] = tested on: RXF 393 renal
[46] = tested on: HS 578T breast
[47] = tested on: HOP-62 NSCLC
[48] = tested on: SK-MEL-5 melanoma
[49] = tested on: MCF7 breast
[50] = tested on: CAKI-1 renal
[51] = tested on: 786-0 renal
[52] = tested on: SW-620 colon
[53] = tested on: MDA-MB-435 melanoma
[54] = tested on: SNB-75 CNS
[55] = tested on: HCT-116 colon
[56] = tested on: U251 glioblastoma
[57] = tested on: DU-145 prostate

CCc1nc(C(N)=O)c(Nc2ccc(N3CCC(N4CCN(C)CC4)CC3)c(OC)c2)nc1NC1CCOCC1
GI50 [1]: 371 nM and 191 nM | TGI [1]: 1330 nM and 375 nM | GI50 [2]: 168 nM and 67.1 nM | TGI [2]: > 100000 nM | GI50 [3]: 1680 nM and 818 nM | GI50 [4]: 593 nM and 391 nM | TGI [4]: > 100000 nM | GI50 [5]: 458 nM and 318 nM | TGI [5]: > 100000 nM | TGI [6]: > 100000 nM | GI50 [7]: 503 nM and 216 nM | GI50 [8]: 227 nM | TGI [8]: 986 nM | GI50 [9]: 2190 nM and 1360 nM | TGI [9]: > 26500 nM | GI50 [10]: 339 nM and 160 nM | GI50 [11]: 551 nM and 339 nM | TGI [11]: 2580 nM and 1730 nM | GI50 [12]: 495 nM and 303 nM | TGI [12]: 5230 nM and 1100 nM | GI50 [13]: 300 nM and 123 nM | TGI [13]: 5540 nM and 617 nM | GI50 [14]: 584 nM and 593 nM | TGI [14]: 4610 nM | GI50 [15]: 114 nM and 36.3 nM | TGI [15]: 608 nM and 213 nM | GI50 [16]: 385 nM and 672 nM | TGI [16]: > 100000 nM | GI50 [17]: 775 nM and 371 nM | GI50 [18]: 180 nM and 253 nM | TGI [18]: 5550 nM and 3080 nM | GI50 [19]: 1730 nM and 828 nM | TGI [19]: 3390 nM and 2100 nM | GI50 [20]: 1170 nM and 584 nM | TGI [20]: > 25600 nM and 4320 nM | GI50 [21]: 533 nM and 259 nM | GI50 [22]: 3260 nM and 2240 nM | TGI [22]: > 100000 nM | GI50 [23]: 242 nM | TGI [23]: 1300 nM | GI50 [24]: 674 nM and 246 nM | GI50 [25]: 396 nM and 214 nM | TGI [25]: 1320 nM | GI50 [26]: 474 nM and 370 nM | TGI [26]: 2570 nM and 1760 nM | GI50 [27]: 335 nM and 179 nM | TGI [27]: 1620 nM and 484 nM | GI50 [28]: 465 nM and 292 nM | GI50 [29]: 1910 nM and 638 nM | TGI [29]: 6720 nM and 2320 nM | GI50 [30]: 302 nM and 155 nM | TGI [30]: 1700 nM and 1060 nM | GI50 [31]: 35.3 nM and 16.5 nM | GI50 [32]: 619 nM and 283 nM | GI50 [33]: 5100 nM and 758 nM | TGI [33]: > 100000 nM | GI50 [34]: 282 nM and 174 nM | GI50 [35]: > 100000 nM | TGI [35]: > 100000 nM | GI50 [36]: 402 nM and 239 nM | TGI [36]: 1790 nM and 1160 nM | GI50 [37]: 357 nM and 185 nM | TGI [37]: 1030 nM and 403 nM | GI50 [38]: 975 nM and 255 nM | TGI [38]: 4200 nM and 984 nM | GI50 [39]: 3390 nM and 1080 nM | TGI [39]: > 100000 nM | GI50 [40]: 457 nM and 231 nM | GI50 [41]: 2150 nM | GI50 [42]: 4620 nM and 1040 nM | TGI [42]: > 20900 nM and 3070 nM | GI50 [43]: 463 nM | TGI [43]: 99300 nM | GI50 [44]: 1250 nM | TGI [44]: 3940 nM | GI50 [45]: 1170 nM and 208 nM | GI50 [46]: 1180 nM | TGI [46]: 3540 nM | GI50 [47]: 1230 nM and 392 nM | GI50 [48]: 661 nM and 406 nM | TGI [48]: > 100000 nM | GI50 [49]: 383 nM and 247 nM | GI50 [50]: 247 nM and 155 nM | TGI [50]: 556 nM | GI50 [51]: 1030 nM and 313 nM | TGI [51]: 5870 nM and 1580 nM | GI50 [52]: 587 nM and 444 nM | TGI [52]: 2070 nM and 1580 nM | GI50 [53]: 704 nM and 329 nM | TGI [53]: > 100000 nM | GI50 [54]: 1360 nM | TGI [54]: 4160 nM | GI50 [55]: 494 nM and 294 nM | TGI [55]: 5950 nM and 3070 nM | GI50 [56]: 6480 nM and 834 nM | GI50 [57]: 491 nM and 322 nM
